The target in assay [1] is T1, ABCG5/G8 (Homo sapiens, UniProt Q9H221+Q9H222, Q9H222:A540F).
T1 sequence (Q9H222 1-651 A540F): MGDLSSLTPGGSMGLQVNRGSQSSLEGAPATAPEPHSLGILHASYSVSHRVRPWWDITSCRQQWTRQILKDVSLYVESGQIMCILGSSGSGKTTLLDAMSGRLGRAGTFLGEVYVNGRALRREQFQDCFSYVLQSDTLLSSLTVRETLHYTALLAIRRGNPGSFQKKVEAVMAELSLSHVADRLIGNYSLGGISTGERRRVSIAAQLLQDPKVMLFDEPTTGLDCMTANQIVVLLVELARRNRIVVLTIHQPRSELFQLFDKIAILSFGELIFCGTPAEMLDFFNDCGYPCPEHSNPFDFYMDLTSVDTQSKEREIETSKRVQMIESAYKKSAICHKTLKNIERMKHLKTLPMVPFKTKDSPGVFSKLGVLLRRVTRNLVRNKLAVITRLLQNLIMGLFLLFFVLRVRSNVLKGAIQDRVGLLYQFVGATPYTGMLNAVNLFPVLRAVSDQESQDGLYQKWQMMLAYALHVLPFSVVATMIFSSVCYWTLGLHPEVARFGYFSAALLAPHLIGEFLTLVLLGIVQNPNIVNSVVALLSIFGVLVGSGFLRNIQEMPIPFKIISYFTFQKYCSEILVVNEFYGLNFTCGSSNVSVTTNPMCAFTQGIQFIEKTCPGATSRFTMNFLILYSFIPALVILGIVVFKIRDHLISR
T1 sequence (Q9H221 1-673): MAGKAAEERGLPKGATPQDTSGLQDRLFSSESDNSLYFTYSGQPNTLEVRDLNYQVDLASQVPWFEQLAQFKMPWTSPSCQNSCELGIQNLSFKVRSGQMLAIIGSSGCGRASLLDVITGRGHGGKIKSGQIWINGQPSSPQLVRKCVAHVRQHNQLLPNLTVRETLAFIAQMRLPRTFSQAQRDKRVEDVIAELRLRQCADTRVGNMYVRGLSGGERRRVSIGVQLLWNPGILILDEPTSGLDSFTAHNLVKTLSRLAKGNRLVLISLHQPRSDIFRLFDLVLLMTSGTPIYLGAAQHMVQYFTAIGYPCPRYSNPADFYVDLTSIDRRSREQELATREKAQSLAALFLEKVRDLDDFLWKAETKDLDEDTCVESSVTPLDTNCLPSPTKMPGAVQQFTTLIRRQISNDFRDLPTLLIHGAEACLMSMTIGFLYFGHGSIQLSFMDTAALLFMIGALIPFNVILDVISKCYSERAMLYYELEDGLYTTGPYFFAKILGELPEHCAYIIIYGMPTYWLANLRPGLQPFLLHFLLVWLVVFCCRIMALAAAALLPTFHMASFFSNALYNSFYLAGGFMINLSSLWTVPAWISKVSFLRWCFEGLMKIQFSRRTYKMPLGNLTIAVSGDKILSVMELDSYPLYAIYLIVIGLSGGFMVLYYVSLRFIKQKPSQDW
Nature of the assay: [3H]cholesterol binding, Ni-NTA bead pull-down, scintillation counting.

The target in assay [2] is T2, ABCG5/G8 (Homo sapiens, UniProt Q9H221+Q9H222).
T2 sequence (Q9H222 1-651): T1 sequence (Q9H222 1-651 A540F) with F540A
T2 sequence (Q9H221 1-673): T1 sequence (Q9H221 1-673)
The description is as above.

Substitutions are numbered along the chain they refer to.

Consider `CC(C)CCC[C@@H](C)[C@H]1CC[C@H]2[C@@H]3CC=C4C[C@@H](O)CC[C@]4(C)[C@H]3CC[C@]12C` [cholesterol], for which the Kd is 1550 ± 10 nM on ABCG5/G8 [1] and 1460 ± 280 nM on ABCG5/G8 [2].

As a reminder, the Kd is a measure of binding affinity in units of concentration. Lower therefore signals a tighter complex.
